Assays:
Format in all cases: cell-based
[1] = tested on: Taxus chinensis cells; test: Effect of silver nitrate and 6-EII on taxane production (14 days); settings: silver as nitrate salt or thiosulfate complex
From the text: Taxus chinensis cells were cultivated as callus and then as suspended cells on growth medium (Table B, Medium A) according to the methods described above in Examples 1 and 2. After seven days of cultivation in this medium, the suspended cells were substantially separated from this medium and placed at ca. 20% (w/v) fresh cells into Medium B (Table B) at an initial pH of 5.8. In addition to the components listed in Table B, 20 micromol/l NAA, 20 micromol/l MDCA, 5 mmol/l GLN, MJS or 6-EII and silver as a nitrate salt or thiosulfate complex were added to the medium at various levels. The gas phase was controlled to oxygen at 90-97% of the levels in air and CO2 at 2.5-6%; the temperature was held at 25±2 degrees Celsius. The cells were cultivated in the dark and were agitated at 150-200 rpm for the duration of the experiment. After 14 days of cultivation in production medium, the culture was harvested for taxanes.

[2] = tested on: Taxus cells; test: Batch addition of 6-EII in combination with other medium components, taxane production; settings: batch mode
Experimental: Taxus cells were cultivated using procedures similar to those used for Example 2. The media were composed of different combinations of 6-EII (or methyl jasmonate-MJS), NAA, SLTS, MDCA and Glutamine. All ingredients were added in a batch mode, i.e., all at once.

[3] = tested on: Taxus chinensis cells; test: Effect of 6-EII in combination with other medium ingredients on taxane yield (14 days)
Experimental: This experiment was carried out according to the following parameters. Taxus chinensis cells were cultivated as callus and then as suspended cells on growth Medium A (Table B), according to the methods described above. After seven days of cultivation in this medium, the suspended cells were substantially separated from this medium and placed at approximately 20% (w/v) fresh cells into a basal production medium (Medium B, Table B) with an initial pH of 5.8. In addition to the components listed in Medium B, the medium additionally comprised 5 millimol/l glutamine. The gas phase was controlled to oxygen at 90-97% of the value in air and 2.5-6% CO2; the temperature was held at 25±2 degrees Celsius. The cells were cultivated in the dark and were agitated at 150-200 rpm for the duration of the experiment. After 14 days of cultivation in production medium, the culture was harvested for taxanes.

[4] = tested on: Taxus chinensis cells; test: Fed batch addition of 6-EII, taxane production in Taxus chinensis suspension culture (12 days); settings: for Baccatin III / Paclitaxel: harvest after 12 days in production medium; for Total: total taxanes, harvest after 12 days
From the text: The medium also contains an indanoyl amide as described in the present application, optionally in combination with one or more jasmonic acid-related substance, and these materials may be added at the beginning of the culture, after the exponential growth phase, or intermittantly throughout the culture period. The other ingredients of the medium may be added all at one time or at different times during the cultivation and may be fed continuously or intermittently. The ingredients may be added either before or after the inclusion of plant cells in the culture broth. Further, nutrients or other ingredients may be additionally added during cultivation, if deemed useful. Optionally, the medium may be changed after a suitable period of cultivation whereby the cells are freshly exposed to a medium containing similar ingredients as described above. Such changes could involve changes to the amounts of sugars such as glucose, fructose, sucrose, maltose, etc., nitrogen sources such as nitrate, ammonium, or amino acids or casamino acids, etc. After a period of cultivation, the culture is harvested and the levels of taxanes are quantified using HPLC and specific taxanes are identified using LC/MS/MS. Taxanes can be recovered from these cultures by appropriate extraction and purification procedures. For Experiments 2-8, Taxus cells were cultivated as callus cultures on solid medium and then further cultivated as suspensions of cell aggregates in liquid medium. Although taxanes can be produced by cultivation on solid medium, the use of liquid medium is preferred. The temperature of cultivation was controlled between 20 and 30 degrees Celsius. This experiment was carried out according to the following parameters. […] Taxus chinensis cells were cultivated as callus and then as suspended cells in growth medium (Medium A shown in Table B) containing 1% maltose and B5 salts according to the methods described above. After seven days of cultivation in this medium, the suspended cells were substantially separated from this medium and placed at about 20% (w/v) fresh cells into a production medium consisting of about 20% (v/v) spent growth medium and 80% (v/v) basal production medium (Medium B shown in Table B, but 1.25-fold concentrated) with an initial pH of 5.8 and containing 20 micromol/l MDCA and 50 micromol/l SLTS (Silver Thiosulfate). […] The gas phase was controlled to 25% oxygen and 4.5% CO2 (balance nitrogen) and the temperature was held at 25±2 degrees Celsius. The cells were cultivated in the dark and were agitated at 100-150 rpm for the duration of the experiment. After 12 days of cultivation in production medium, the culture was harvested for taxanes.

[5] = cumulative 12-day fed batch dose 20 micromol/l
[6] = cumulative 12-day fed batch dose 50 micromol/l
[7] = cumulative 12-day fed batch dose 75 micromol/l
[8] = cumulative 12-day fed batch dose 100 micromol/l

Substance: 6-ethyl-indanoyl-isoleucine [6-EII]
- interaction with silver on taxane production [1]: act synergistically
- activity in improving taxane production compared with MJS ([2]; all ingredients added at once): comparable activity in improving taxane production
- interaction with auxin-type growth regulator NAA on taxane production ([2]; combined with NAA): interact positively to improve taxane production
- interaction with glutamine on taxane production ([2]; combined with glutamine): interact favorably to improve taxane production
- interaction with silver on overall production of taxanes ([2]; combined with silver (SLTS)): works synergistically with silver to increase overall production of taxanes
- effect on baccatin-III versus paclitaxel production ([2]; with silver): improve baccatin-III production without reducing the amount of paclitaxel produced
- taxane yield, 6-EII by itself ([3]; 6-EII 5-500 micromol/l, by itself): increase in taxane yield
- taxane yield, combined with NAA ([3]; 6-EII with 20 micromol/l NAA): yield improved by a significantly higher amount
- taxane yield, combined with NAA and silver ([3]; 6-EII with 20 micromol/l NAA and 50 micromol/l silver (thiosulfate complex)): yield further increased
- taxane yield, combined with NAA, silver and MDCA ([3]; 6-EII with 20 micromol/l NAA, 50 micromol/l silver and 20 micromol/l MDCA): yield increased even further
- activity on taxane production compared with methyl jasmonate ([4]; 12-day fed batch treatment): comparable activity
- Baccatin III [4, 5]: 159 mg/L
- Paclitaxel [4, 5]: 443 mg/L
- Baccatin III [4, 6]: 358 mg/L
- Paclitaxel [4, 6]: 495 mg/L
- Baccatin III [4, 7]: 605 mg/L
- Paclitaxel [4, 7]: 556 mg/L
- Baccatin III [4, 8]: 616 mg/L
- Paclitaxel [4, 8]: 557 mg/L
- Total [4, 5]: 694 mg/L
- Total [4, 6]: 1301 mg/L
- Total [4, 7]: 1693 mg/L
- Total [4, 8]: 1702 mg/L

Source: patent US20050221456A1, “Use of indanoyl amide to stimulate secondary metabolism in Taxus sp” (Phyton Biotech, Inc., priority 2004, published 2005)
